Measured values: patent publication US20230047393A1 (EWHA DrugDesignHouse Co.,Ltd., priority 2021, published 2023)
Converted amounts (≈) assume the structure as drawn. Where two headings read alike, the source gives them in different places.

Assays:
rabbit GFS model = details: cited from earlier work
[1] = tested on: rabbit model of trabeculectomy; details: cited from earlier work
[2] = tested on: human lens epithelial cells line SRA01/04; details: SRA01/04 cells, nontoxic concentrations; cited from earlier work
[3] = tested on: TFG-β2-treated perfused human anterior segments; details: cited from earlier work
[4] = tested on: TFG-β2-treated trabecular meshwork cell cultures; details: cited from earlier work
mouse B16 melanoma model = details: cited from earlier work; for progression of melanoma: mouse B16 melanoma model, with enhanced CTL responses
[5] = tested on: laser-induced CNV in retina of mice; details: day 14 after laser-induced CNV formation, vs PBS treated control (p<0.05, n=5 per group); cited from earlier work
[6] = Solubility of EW-7197 at various pH values; assay type: physicochemical; details: thermodynamic from solid
From the text: In order to use EW-7197 for treating or preventing TFG-β signaling related ocular diseases, postsurgical peritoneal adhesions, postsurgical anastomotic strictures, hypertrophic scar, or keloid in human, formulation development of an aqueous solution containing appropriate amounts of EW-7197 is needed.

[7] = Photostability of EW-7197 in buffer solutions (ultraviolet and visible light); assay type: physicochemical; details: solution left in a room for a whole day under fluorescent lighting (about 1000 lx per hour)
Description: The formulations used in the photostability test are the same formulations (excluding A13, A16, A19, and A22) used for evaluation of thermal stability shown in Table 4. After preparation, each formulation was filtered. About 3 mL of the filtrate was filled in a glass ampule, and illuminated with ultraviolet light of 50 W·h/m^2 and visible light of 300,000 lx·hr by a photostability test chamber. […] Generally, illumination under white fluorescent lighting is about 1000 lx per hour. […] Therefore, EW-7197 needs to be stored in light shielded conditions.

[8] = Solubility of EW-7197 with various solubilizing agents (4° C. and 25° C.); assay type: physicochemical; details: for EW-7197 dissolved: 1% of each surfactant, boric acid/sodium borate pH7.5
From the text: The buffer solution used in this study was 0.9% boric acid/0.1% sodium borate (pH7.5). […] After confirming that the formulations were suspended at each temperature, each formulation was filtered.

[9] = Effect of metal ion on thermal stability of EW-7197 (40° C.); assay type: physicochemical; details: 100 ppm aluminum ions or iron ions, with or without EDTA, PE bottles
Description: After the preparation of each formulation, the formulation was filtered. The filtrate was filled into a PE bottle, and stored in a thermostatic chamber (40° C.).
In this study, the final concentration of aluminum ions or iron ions was 100 ppm, and the PE ophthalmic bottles were used as containers.

[10] = Solubility of EW-7197 in PEG/poloxamer formulations (5° C. and 25° C.); assay type: physicochemical; details: formulations containing 25% PEG4000 and 10% poloxamer 407
Description: After confirming that the formulation was suspended at each temperature, the suspension was filtered. The EW-7197 content of the filtrate was measured by HPLC.

[11] = tested on: liver of CCl4-treated mice; details: cited from earlier work
[12] = tested on: liver of bile duct ligated rats; details: cited from earlier work
[13] = tested on: lung of bleomycin-treated mice; details: cited from earlier work
[14] = tested on: kidney of mice with unilateral ureteral obstruction; details: cited from earlier work
rat esophagus = details: after SEMS placement in the rat esophagus; cited from earlier work
[15] = tested on: peritoneal adhesions rat model; details: dose-dependent; cited from earlier work
[16] = tested on: adhesion bands mouse model; details: cited from earlier work
[17] = tested on: mouse model of ulcerative colitis; details: cited from earlier work
MMTV/c-Neu mice = details: cited from earlier work
[18] = tested on: 4T1 orthotopic-grafted mice; details: cited from earlier work
[19] = tested on: MDA-MB-231-xenografted mouse model; details: cited from earlier work
CML-affected mice = details: combined with ponatinib, compared to ponatinib alone; cited from earlier work
Col8a2 knock-in mice = details: cited from earlier work
rabbit PVR trauma model = details: intravitreal injection; cited from earlier work

Cc1cccc(-c2[nH]c(C(C)(C)C)nc2-c2ccc3c(c2)OCO3)n1 [SB-505124]
ocular scarring following GFS (rabbit GFS model): prevents
TFG-β activity [1]: inhibited
bleb survival [1]: promoted

Cc1ccc(=O)n(-c2ccccc2)c1 [Pirfenidone]
TGF-β-induced proliferation, migration, and EMT [2]: inhibits

NC(=O)c1ccc(-c2nc(-c3ccc4c(c3)OCO4)c(-c3ccccn3)[nH]2)cc1 [SB-431542]
level of fibronectin [3]: reduces
levels of fibronectin and plasminogen activator inhibitor-1 (PAI-1) [4]: reduces
post-surgical scarring and fibrosis after GFS (rabbit GFS model): decreases

Cc1cccc(-c2nn3c(c2-c2ccnc4ccc(C(N)=O)cc24)CCC3)n1 [LY-2157299, reference compound]
progression of melanoma (mouse B16 melanoma model): suppress
neovascular area in retina [5]: reduces

Cc1cccc(-c2[nH]c(CNc3ccccc3F)nc2-c2ccc3ncnn3c2)n1 [EW-7197, 2-fluoro-N-((5-(6-methylpyridin-2-yl)-4-([1,2,4]triazolo[1,5-a]pyridin-6-yl)-1H-imidazol-2-yl)methyl)aniline]
solubility ([6]; 0.1N NaOH, pH 12.86, aqueous buffer, pH 12.86, 0.1N NaOH, pH after equilibration 12.53, read-out: Solubility Average (n = 2)): 0.437 mg/mL (≈ 1090 µM)
solubility ([6]; 0.1N NaOH, pH 12.86, aqueous buffer, pH 12.86, 0.1N NaOH, pH after equilibration 12.53, read-out: Solubility Trial 1): 0.396 mg/mL (≈ 991 µM)
solubility ([6]; 0.1N NaOH, pH 12.86, aqueous buffer, pH 12.86, 0.1N NaOH, pH after equilibration 12.53, read-out: Solubility Trial 2): 0.478 mg/mL (≈ 1200 µM)
solubility ([6]; citrate buffer, pH 3, aqueous buffer, pH 3.0, Citrate buffer, pH after equilibration 3.30, read-out: Solubility Average (n = 2)): 1.01 mg/mL (≈ 2540 µM)
solubility ([6]; citrate buffer, pH 3, aqueous buffer, pH 3.0, Citrate buffer, pH after equilibration 3.30, read-out: Solubility Trial 1): 1 mg/mL (≈ 2500 µM)
solubility ([6]; citrate buffer, pH 3, aqueous buffer, pH 3.0, Citrate buffer, pH after equilibration 3.30, read-out: Solubility Trial 2): 1.03 mg/mL (≈ 2580 µM)
solubility ([6]; citrate buffer, pH 4, aqueous buffer, pH 4.0, Citrate buffer, pH after equilibration 4.16, read-out: Solubility Average (n = 2)): 0.105 mg/mL (≈ 263 µM)
solubility ([6]; citrate buffer, pH 4, aqueous buffer, pH 4.0, Citrate buffer, pH after equilibration 4.16, read-out: Solubility Trial 1): 0.11 mg/mL (≈ 275 µM)
solubility ([6]; citrate buffer, pH 4, aqueous buffer, pH 4.0, Citrate buffer, pH after equilibration 4.16, read-out: Solubility Trial 2): 0.1 mg/mL (≈ 250 µM)
solubility ([6]; citrate buffer, pH 5, aqueous buffer, pH 5.0, Citrate buffer, pH after equilibration 4.90, read-out: Solubility Average (n = 2)): 0.02 mg/mL (≈ 50.1 µM)
solubility ([6]; citrate buffer, pH 5, aqueous buffer, pH 5.0, Citrate buffer, pH after equilibration 4.90, read-out: Solubility Trial 1): 0.019 mg/mL (≈ 47.6 µM)
solubility ([6]; citrate buffer, pH 5, aqueous buffer, pH 5.0, Citrate buffer, pH after equilibration 4.90, read-out: Solubility Trial 2): 0.021 mg/mL (≈ 52.6 µM)
solubility ([6]; hydrochloric acid buffer, pH 1.2, simulated gastric fluid, pH 1.2, Hydrochloric acid buffer, pH after equilibration 2.81, read-out: Solubility Average (n = 2)): 25.1 mg/mL (≈ 62700 µM)
solubility ([6]; hydrochloric acid buffer, pH 1.2, simulated gastric fluid, pH 1.2, Hydrochloric acid buffer, pH after equilibration 2.81, read-out: Solubility Trial 1): 25.1 mg/mL (≈ 62700 µM)
solubility ([6]; hydrochloric acid buffer, pH 1.2, simulated gastric fluid, pH 1.2, Hydrochloric acid buffer, pH after equilibration 2.81, read-out: Solubility Trial 2): 25 mg/mL (≈ 62700 µM)
solubility ([6]; hydrochloric acid buffer, pH 2, simulated gastric fluid, pH 2.0, Hydrochloric acid buffer, pH after equilibration 2.97, read-out: Solubility Average (n = 2)): 2.91 mg/mL (≈ 7270 µM)
solubility ([6]; hydrochloric acid buffer, pH 2, simulated gastric fluid, pH 2.0, Hydrochloric acid buffer, pH after equilibration 2.97, read-out: Solubility Trial 1): 2.93 mg/mL (≈ 7340 µM)
solubility ([6]; hydrochloric acid buffer, pH 2, simulated gastric fluid, pH 2.0, Hydrochloric acid buffer, pH after equilibration 2.97, read-out: Solubility Trial 2): 2.88 mg/mL (≈ 7210 µM)
solubility ([6]; phosphate buffer, pH 6, aqueous buffer, pH 6.0, Phosphate buffer, pH after equilibration 5.96, read-out: Solubility Average (n = 2)): 0.012 mg/mL (≈ 30 µM)
solubility ([6]; phosphate buffer, pH 6, aqueous buffer, pH 6.0, Phosphate buffer, pH after equilibration 5.96, read-out: Solubility Trial 1): 0.012 mg/mL (≈ 30 µM)
solubility ([6]; phosphate buffer, pH 6, aqueous buffer, pH 6.0, Phosphate buffer, pH after equilibration 5.96, read-out: Solubility Trial 2): 0.012 mg/mL (≈ 30 µM)
solubility ([6]; phosphate buffer, pH 6.8, aqueous buffer, pH 6.8, Phosphate buffer, pH after equilibration 6.79, read-out: Solubility Average (n = 2)): 0.012 mg/mL (≈ 30 µM)
solubility ([6]; phosphate buffer, pH 6.8, aqueous buffer, pH 6.8, Phosphate buffer, pH after equilibration 6.79, read-out: Solubility Trial 1): 0.011 mg/mL (≈ 27.5 µM)
solubility ([6]; phosphate buffer, pH 6.8, aqueous buffer, pH 6.8, Phosphate buffer, pH after equilibration 6.79, read-out: Solubility Trial 2): 0.013 mg/mL (≈ 32.5 µM)
solubility ([6]; phosphate buffer, pH 7.4, aqueous buffer, pH 7.4, Phosphate buffer, pH after equilibration 7.32, read-out: Solubility Average (n = 2)): 0.013 mg/mL (≈ 32.5 µM)
solubility ([6]; phosphate buffer, pH 7.4, aqueous buffer, pH 7.4, Phosphate buffer, pH after equilibration 7.32, read-out: Solubility Trial 1): 0.013 mg/mL (≈ 32.5 µM)
solubility ([6]; phosphate buffer, pH 7.4, aqueous buffer, pH 7.4, Phosphate buffer, pH after equilibration 7.32, read-out: Solubility Trial 2): 0.013 mg/mL (≈ 32.5 µM)
solubility ([6]; water / aqueous solution, aqueous buffer, in an acceptable pH range for ophthalmic solution, read-out: water solubility): 0.01 to 0.02 mg/mL (≈ 25 to 50.1 µM)
solubility ([6]; water, pH 7.17, water, Water, pH after equilibration 7.17, read-out: Solubility Average (n = 2)): 0.009 mg/mL (≈ 22.5 µM)
solubility ([6]; water, pH 7.17, water, Water, pH after equilibration 7.17, read-out: Solubility Trial 1): 0.009 mg/mL (≈ 22.5 µM)
solubility ([6]; water, pH 7.17, water, Water, pH after equilibration 7.17, read-out: Solubility Trial 2): 0.009 mg/mL (≈ 22.5 µM)
EW-7197 decomposed by light [7]: 1-5%
EW-7197 dissolved ([8]; 4° C.): about 0.01%
EW-7197 dissolved ([8]; 25° C.): about 0.02%
upper limit of concentration of EW-7197 ([8]; formulation with 1% tyloxapol, 4% PEG4000, and 2% niacinamide): about 0.015%
effect of metal ions on thermal stability of EW-7197 [9]: neither aluminum ions nor iron ions affected the thermal stability
solubility of EW-7197 [10]: about 0.125%
expression of collagen, aSMA, fibronectin, 4-hydroxy-2,3-nonenal, and integrins [11]: decreases
expression of collagen, aSMA, fibronectin, 4-hydroxy-2,3-nonenal, and integrins [12]: decreases
expression of collagen, aSMA, fibronectin, 4-hydroxy-2,3-nonenal, and integrins [13]: decreases
expression of collagen, aSMA, fibronectin, 4-hydroxy-2,3-nonenal, and integrins [14]: decreases
granulation tissue formation (rat esophagus): suppresses
incidence, quality, and tenacity of peritoneal adhesions [15]: reduces
frequency and stability of adhesion bands [16]: prevents
clinical symptoms of colitis [17]: ameliorates
excessive collagen deposition and fibrosis in colitis tissues [17]: inhibits
overexpression of proinflammatory and profibrotic genes [17]: suppresses
progression of melanoma (mouse B16 melanoma model): suppress
efficacy compared with LY-2157299 (mouse B16 melanoma model; oral EW-7197 2.5 mg/kg once daily vs LY-2157299 75 mg/kg bid): more effective
Smad/TGF-β signaling, cell migration, invasion, and lung metastasis (MMTV/c-Neu mice): inhibits
CTL activity [18]: enhanced
Smad/TGF-β signaling, cell migration, invasion, and lung metastasis [18]: inhibits
paclitaxel-induced epithelial-mesenchymal transition (EMT) and cancer stem-like cells properties [19]: suppresses
disease relapse and survival (CML-affected mice): significantly delays disease relapse and prolongs survival
fibronectin expression (Col8a2 knock-in mice; 0.004%, 0.02%, and 0.1%, dose-dependent): suppresses
decrease in corneal endothelial cells and/or corneal endothelial disorders represented by overexpression of ECM (Col8a2 knock-in mice; 0.02% eye drop administration): effectively suppresses

c1ccc(-c2[nH]ncc2-c2ccnc3ccccc23)nc1 [LY-364947]
PVR development and subsequent tractional retinal detachment (rabbit PVR trauma model): prevents
